Tests used:
[1] = mouse, in vivo
[2] = tested on: B16 tumors; set-up: species or system mice; details: mouse, in vivo
[3] = tested on: HCT116 tumor xenograft; set-up: species or system mice; details: mouse, in vivo

Substance: COBALT
- Deaths after a single dose of COBALT [1]: three of the mice died
- Deaths after the first dose of COBALT [1]: Four mice died
- Effect on tumor growth (FIG. 6C) [2]: tumors remained small over the four week course of this experiment
- Effect on tumor growth (FIG. 6A, 6B) [3]: tumors actually shrinking rather than simply slowing
- Mice cured / complete tumor regression / long-term tumor-free survival [3]: four were apparently cured of their tumor and Four of these seven mice were cured and four of eight and half
- Mice developing striking hemorrhagic necrosis of their tumors [3]: seven of eight
- Time at which a black spot of hemorrhagic necrosis is evident [3]: 0.3 days
- Visible hemorrhagic necrosis and disappearance of tumors (FIG. 5) [3]: dramatic effects on large subcutaneous tumors

— patent US7344710B2 (priority 2001, dated 2008)
